Laboratory results: US12473283B2, “Compounds and their use” (Debiopharm International S.A., priority 2019, dated 2025)
In brackets after ≈: the same amount, converted by molar mass. Like-named read-outs stand apart in the source and are kept apart here.

How the values were obtained:
[1] = target: FabI enzyme from Acinetobacter baumannii (Acinetobacter baumannii, UniProt D0CAD5); assay: Inhibition of FabI enzyme, rate of NADH consumption; type: biochemical
Experimental: (§1) Inhibition of FabI enzyme from Acinetobacter baumannii and Escherichia coli was tested by measuring the rate of NADH consumption (Δabsorbance at 340 nm/min) at 30° C. in 96-well plate format using an automated plate reader in the presence or absence of the test compounds. The assay mixture contained 100 mM Tris-HCl, pH 7.25 (A. baumannii) or 7.5 (E. coli), 100 mM ammonium acetate, 0.02% (A. baumannii) or 0.05% (E. coli) Pluronic F-68, 25 μM crotonyl ACP, 50 μM NADH, 25 pM (A. baumannii) or 50 pM (E. coli) recombinant FabI protein, and 7.5% DMSO. Test compounds were added at concentrations ranging from 0.17 to 10,000 nM in a final well volume of 100 μl. This dose-response inhibitory assay was performed using a 10-point, serial dilution series for each test compound. IC50 values for each test compound were assigned from logistical sigmoid curve-fitting of the inhibition dose response curves.

[2] = target: FabI enzyme from Escherichia coli (Escherichia coli, UniProt P0AEK4); assay: as above; type: biochemical; conditions: recombinant FabI, 30° C., pH 7.5; read-out: E. coli Fabl IC50
Experimental: as §1

[3] = system: A. baumannii ATCC BAA1605; assay: Broth microdilution MIC assay; type: cell-based; conditions: Acinetobacter baumannii, ATCCBAA1605; CA-MHB, 35° C., 20 hours
Experimental: (§2) The antibacterial activity of FabI inhibitors against select Gram-negative and Gram-positive bacterial species including susceptible and multi-drug resistant A. baumannii, E. coli, K. pneumoniae and S. aureus was tested using the broth microdilution Minimal Inhibitory Concentration (MIC) assay following CLSI guidelines for insoluble compounds. Test articles were serially diluted 2-fold in 100% dimethyl sulfoxide (DMSO) and then diluted 100-fold into cation adjusted Mueller-Hinton broth (CA-MHB) to achieve a 10-point test concentration range in 1% DMSO. Final compound concentrations were 0.016-8 μg/ml for S. aureus or 0.06-32 μg/ml for the Gram-negative species. MIC test plates were then prepared by transferring 100 μl of the final assay medium (test article in CA-MHB, 1% DMSO) into the appropriate wells of a sterile, low binding 96-well polystyrene plate. Direct colony suspension inoculums of the test strains were freshly prepared per CLSI guidelines, and the appropriate test wells were inoculated to achieve a final bacterial cell density of 5×10^5 CFU/ml. Growth control (no test article) and negative control (no bacterial inoculum) wells were also included. Exposure to light was minimized during all stages of assay preparation. […] Bacterial growth was then determined by measuring the optical density at 600 nm (OD600) using a SpectraMax Plus plate-reader spectrophotometer.

E. coli AG100 = assay: Broth microdilution MIC assay; type: cell-based; conditions: Escherichia coli, CA-MHB, 35° C., 20 hours
Experimental: as §2

K. pneumoniae A6030827 = assay: Broth microdilution MIC assay; type: cell-based; conditions: Klebsiella pneumoniae, CA-MHB, 35° C., 20 hours
Experimental: as §2

S. aureus ATCC 29213 = assay: Broth microdilution MIC assay; type: cell-based; conditions: Staphylococcus aureus, ATCC29213; CA-MHB, 35° C., 20 hours
Experimental: as §2

[4] = system: Acinetobacter baumannii ATCC 17978; assay: MIC against the in vivo test strain; type: cell-based; conditions: A. baumannii ATCC 17978; for MIC: Acinetobacter baumannii, ATCC17978
Experimental: as §2
(§3) On day 0, animals were inoculated intramuscularly (0.1 ml/thigh) with a 1.67×10^4 inoculum count of Acinetobacter baumannii ATCC 17978. Vehicle control (40% Captisol), positive control (tigecycline) or test substances were then administered 2 hr post infection by the subcutaneous (SC) route of administration. Each dosing group consisted of 5 female mice. The MICs of the compounds against the test strain were 8 μg/ml, 2 μg/ml and […] for compound 201, compound 71 and compound 200, respectively. At 26 or 74 hours after inoculation (24 or 72 hr after treatment initiation), animals were euthanized with CO2 asphyxiation and the thigh tissue harvested from each of the test animals. The tissues were homogenized in 3 mL of PBS, pH 7.4 with a homogenizer. Homogenates, 0.1 mL, were used for serial 10-fold dilutions and plated onto NB agar for colony counts. Efficacy is calculated as the change in log CFU/g thigh vs. the time 0 (treatment initiation) control.
[…]

[5] = system: Acinetobacter baumannii ATCC 17978; assay: Mouse thigh infection model; type: in vivo, BALB/c mice; conditions: for Mean Change log CFU/g thigh 72 hr / Mean Change log CFU/g thigh 24 hr: vs. time 0 control; for Mean Log CFU/g thigh 72 hr: 72 hr treatment; for Mean Log CFU/g thigh 24 hr: 24 hr treatment
Experimental: (§4) Groups of 5 female specific-pathogen-free BALB/c mice weighing 18±2 g were used. In the 24 hr model (bacterial counts determined 24 hr after treatment start), mice were rendered neutropenic with cyclophosphamide intraperitoneal (IP) administration conducted at Days −4 (150 mg/kg), and day −1 (100 mg/kg). In the 72 hr model (bacterial counts determined 72 hr after treatment start), animals were rendered persistently neutropenic for the duration of the infection period with cyclophosphamide intraperitoneal (IP) administration conducted at Days −4 (150 mg/kg), −1 (100 mg/kg) and +1 (100 mg/kg). Persistent neutropenia is required to prevent pathogen clearance from thigh tissue in the 74 hr model. Nutritional supplementation (diet gel) plus saline SC injections were provided daily to help animals tolerate the cyclophosphamide treatment.
as §3

A. baumannil ATCC 17978 = assay: Mouse lung infection model; type: in vivo, BALB/c mice; conditions: for Mean change log CFU/g lung 24 hr / Mean change log CFU/g lung 72 hr: vs. time 0 control; for Mean Log CFU/g lung 24 hr: 24 hr treatment; for Mean Log CFU/g lung 72 hr: 72 hr treatment
Experimental: as §4, with “lung” for “thigh”
On day 0, animals were anesthetized with etomidate-lipuro emulsion (20 mg/10 mL; 20 mg/kg dose, IV) and then inoculated intranasally with an A. baumannil ATCC 17978 suspension, 1.36×10^5 CFU/mouse, 0.02 mL/mouse. Vehicle control (40% Captisol), positive control (tigecycline) or test substances were then administered 2 hr post infection by the subcutaneous (SC) route of administration. Each dosing group consisted of 5 female mice. The MICs of the compounds against the test strain were 8 μg/ml and 0.5 μg/ml for compound 201 and compound 200, respectively. At 26 or 74 hours after inoculation (24 or 72 hr after treatment initiation), animals were euthanized with CO2 asphyxiation and the lung tissue harvested from each of the test animals. The tissues were homogenized in 1 ml of PBS, pH 7.4 with a homogenizer. Homogenates, 0.1 mL, were used for serial 10-fold dilutions and plated onto MacConkey II agar for colony counts. Efficacy is calculated as the change in log CFU/g […] vs. the time 0 (treatment initiation) control.

[6] = recombinant FabI, 30° C., pH 7.25, read-out: A. baumannii Fabl IC50
[7] = 25 mg/kg q6h SC, total daily dose 100 mg/kg
[8] = 50 mg/kg q6h SC, total daily dose 200 mg/kg
[9] = following both 24 hr and 72 hr treatment, SC

Chain of FabI enzyme from Acinetobacter baumannii (D0CAD5 entry or part of it): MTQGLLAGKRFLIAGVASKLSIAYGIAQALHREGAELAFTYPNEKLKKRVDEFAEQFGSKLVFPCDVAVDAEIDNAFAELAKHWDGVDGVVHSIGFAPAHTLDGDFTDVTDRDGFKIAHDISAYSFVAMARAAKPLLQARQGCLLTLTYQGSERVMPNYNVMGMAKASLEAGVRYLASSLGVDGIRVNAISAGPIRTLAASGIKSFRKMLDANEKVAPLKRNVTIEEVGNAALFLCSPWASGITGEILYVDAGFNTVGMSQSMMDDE
Chain of FabI enzyme from Escherichia coli (P0AEK4 whole entry): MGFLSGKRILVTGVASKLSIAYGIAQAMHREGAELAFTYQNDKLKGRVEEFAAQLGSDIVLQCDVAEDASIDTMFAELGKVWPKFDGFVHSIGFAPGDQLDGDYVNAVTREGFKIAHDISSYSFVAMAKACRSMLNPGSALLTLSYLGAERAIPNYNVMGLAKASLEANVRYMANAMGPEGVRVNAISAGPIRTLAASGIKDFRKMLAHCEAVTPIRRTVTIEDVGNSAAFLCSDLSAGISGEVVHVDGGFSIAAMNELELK

Compound | IC50 [1, 6] | IC50 [2] | MIC [3] | MIC (E. coli AG100) | MIC (K. pneumoniae A6030827) | MIC (S. aureus ATCC 29213) | MIC [4] | Mean Change log CFU/g thigh 72 hr ([5]; 25 mg/kg q6h SC) | Mean Log CFU/g thigh 72 hr [5, 7] | Mean Change log CFU/g thigh 24 hr ([5]; 50 mg/kg q6h SC) | Mean Change log CFU/g thigh 72 hr ([5]; 50 mg/kg q6h SC) | Mean Log CFU/g thigh 24 hr [5, 8] | Mean Log CFU/g thigh 72 hr [5, 8] | Mean change log CFU/g lung 24 hr (A. baumannil ATCC 17978; 25 mg/kg q6h SC) | Mean change log CFU/g lung 72 hr (A. baumannil ATCC 17978; 25 mg/kg q6h SC) | Mean Log CFU/g lung 24 hr (A. baumannil ATCC 17978; [7]) | Mean Log CFU/g lung 72 hr (A. baumannil ATCC 17978; [7]) | Mean change log CFU/g lung 24 hr (A. baumannil ATCC 17978; 50 mg/kg q6h SC) | Mean change log CFU/g lung 72 hr (A. baumannil ATCC 17978; 50 mg/kg q6h SC) | Mean Log CFU/g lung 24 hr (A. baumannil ATCC 17978; [8]) | also measured
Cc1c(CN(C)C(=O)/C=C/c2cnc3c(c2)NC[C@H](N)C(=O)N3)oc2ccccc12 [Compound 8, (S,E)-3-(3-amino-4-oxo-2,3,4,5-tetrahydro-1H-pyrido[2,3-b][1,4]diazepin-8-yl)-N-methyl-N-((3-methylbenzofuran-2-yl)methyl)acrylamide] | < 10 nM | < 10 nM | ≤ 4 µg/mL | ≤ 4 µg/mL | ≤ 4 µg/mL | ≤ 4 µg/mL | – | – | – | – | – | – | – | – | – | – | – | – | – | – | –
Cc1c(CN(C)C(=O)/C=C/c2cnc3c(c2)CCC(N2CCCC2)C(=O)N3)oc2ccccc12 (stereo not drawn) [Compound 182, (E)-N-methyl-N-((3-methylbenzofuran-2-yl)methyl)-3-(8-oxo-7-(pyrrolidin-1-yl)-6,7,8,9-tetrahydro-5H-pyrido[2,3-b]azepin-3-yl)acrylamide] | < 10 nM | < 10 nM | ≤ 4 µg/mL | ≤ 4 µg/mL | ≤ 4 µg/mL | ≤ 4 µg/mL | – | – | – | – | – | – | – | – | – | – | – | – | – | – | –
Cc1oc2ccccc2c1CN(C)C(=O)/C=C/c1cnc2c(c1)CC[C@H](N)C(=O)N2 [Compound 200, (S,E)-3-(7-amino-8-oxo-6,7,8,9-tetrahydro-5H-pyrido[2,3-b]azepin-3-yl)-N-methyl-N-((2-methylbenzofuran-3-yl)methyl)acrylamide] | < 10 nM | – | ≤ 4 µg/mL | ≤ 4 µg/mL | – | ≤ 4 µg/mL | 0.5 µg/mL (≈ 1.24 µM) | −2.27 log CFU/g thigh | 2.58 log CFU/g thigh | −2.53 log CFU/g thigh | −2.14 log CFU/g thigh | 2.31 log CFU/g thigh | 2.71 log CFU/g thigh | −2.44 log CFU/g lung | −2.21 log CFU/g lung | 3.86 log CFU/g lung | 4.09 log CFU/g lung | −3.50 log CFU/g lung | −3.39 log CFU/g lung | 2.80 log CFU/g lung | MIC against the test strain [4]: 0.5 µg/mL (≈ 1.24 µM); efficacy (log kill), thigh model [5, 9]: 2.1-2.4 log kill; Mean Log CFU/g lung 72 hr (A. baumannil ATCC 17978; [8]): 2.91 log CFU/g lung; efficacy (log kill), lung model (A. baumannil ATCC 17978; [9]): 2.5-3.5 log kill
Cc1c(CN(C)C(=O)/C=C/c2cnc3c(c2)CC(N)C(=O)N3)oc2ccccc12.Cl (stereo not drawn) [Compound 201, (E)-3-(6-amino-7-oxo-5,6,7,8-tetrahydro-1,8-naphthyridin-3-yl)-N-methyl-N-((3-methylbenzofuran-2-yl)methyl)acrylamide hydrochloride, reference compound] | – | – | 16 µg/mL | 8 µg/mL | – | – | 8 µg/mL | 2.24 log CFU/g thigh | 7.09 log CFU/g thigh | 2.26 log CFU/g thigh | 1.86 log CFU/g thigh | 7.11 log CFU/g thigh | 6.70 log CFU/g thigh | 1.02 log CFU/g lung | 0.21 log CFU/g lung | 7.32 log CFU/g lung | 6.51 log CFU/g lung | 0.26 log CFU/g lung | −0.35 log CFU/g lung | 6.56 log CFU/g lung | IC50 [1]: 19 nM; efficacy in words, thigh model summary ([5]; SC, 24 hr and 72 hr treatment): no efficacy; Mean Log CFU/g lung 72 hr (A. baumannil ATCC 17978; [8]): 5.95 log CFU/g lung; efficacy in words, lung model summary (A. baumannil ATCC 17978; SC, 24 hr and 72 hr treatment): very slight efficacy
